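Each compound was tested at five concentrations against cells in 96-well plates for 48 hours. The concentration for 50% growth inhibition is given as GI50.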 Calls of active or inactive are those of the source. Cut-off read from the data, not from the text of the source: active = GI50 up to about 1.1 µM and inactive = higher.
What was measured:
Assay in all cases: NCI anticancer screen, dose series, 48 h
[1] = tested on: CCRF-CEM
[2] = tested on: EKVX
[3] = tested on: HCT-116
[4] = tested on: IGROV-1
[5] = tested on: LOX IMVI
[6] = tested on: NCI-H226
[7] = tested on: NCI-H23
[8] = tested on: NCI-H460
[9] = tested on: NCI-H522
[10] = tested on: OVCAR-4
[11] = tested on: OVCAR-5
[12] = tested on: SF-268
[13] = tested on: SF-539
[14] = tested on: SK-MEL-28
[15] = tested on: SN12C
[16] = tested on: SR
[17] = tested on: TK-10
[18] = tested on: KM12

Row | Compound | GI50 [1] | GI50 [2] | GI50 [3] | GI50 [4] | GI50 [5] | GI50 [6] | GI50 [7] | GI50 [8] | GI50 [9] | GI50 [10] | GI50 [11] | GI50 [12] | GI50 [13] | GI50 [14] | GI50 [15] | GI50 [16] | GI50 [17] | GI50 [18]
1 | O=C1C(/C=C/c2ccc(Cl)cc2)=NNC2N1N=C1NC(=O)C3(NN12)c1ccccc1-c1ccccc13 (configuration not stated) | 65.6 µM (inactive) | 38.5 µM (inactive) | > 100 µM (inactive) | > 100 µM (inactive) | > 100 µM (inactive) | > 100 µM (inactive) | > 100 µM (inactive) | > 100 µM (inactive) | > 100 µM (inactive) | > 100 µM (inactive) | > 100 µM (inactive) | > 100 µM (inactive) | > 100 µM (inactive) | > 100 µM (inactive) | > 100 µM (inactive) | < 0.01 µM (active) | > 100 µM (inactive) | 
2 | O=C1OC(O)c2cc3c(cc21)OCO3 (configuration not stated) | > 100 µM (inactive) | > 100 µM (inactive) | > 100 µM (inactive) | > 100 µM (inactive) | > 100 µM (inactive) |  | > 100 µM (inactive) | > 100 µM (inactive) | > 100 µM (inactive) | > 100 µM (inactive) |  | > 100 µM (inactive) | > 100 µM (inactive) | > 100 µM (inactive) | > 100 µM (inactive) |  | > 100 µM (inactive) | > 100 µM (inactive)
3 | O=C1C2=C(c3ccccc31)C(c1ccccc1Cl)N1C(=O)CCSC1=N2 (configuration not stated) | > 100 µM (inactive) | > 100 µM (inactive) | > 100 µM (inactive) | > 100 µM (inactive) |  | > 100 µM (inactive) | 76 µM (inactive) |  | 35.7 µM (inactive) | 45.4 µM (inactive) | > 100 µM (inactive) | > 100 µM (inactive) | > 100 µM (inactive) | > 100 µM (inactive) | 89.9 µM (inactive) |  | > 100 µM (inactive) | > 100 µM (inactive)
4 | Cc1c(C(=O)/C=C/C=C/c2ccccc2)[n+]([O-])c2ccccc2[n+]1[O-] | 34 µM (inactive) | 51.2 µM (inactive) |  | 26.3 µM (inactive) | 31.1 µM (inactive) | 64.3 µM (inactive) | 17.5 µM (inactive) | 18.8 µM (inactive) | 15 µM (inactive) | 31.2 µM (inactive) | 66.1 µM (inactive) | 29.5 µM (inactive) | 40 µM (inactive) | 18.9 µM (inactive) | 23.5 µM (inactive) |  | 50.8 µM (inactive) | 16.8 µM (inactive)
5 | CC/C(=C(\c1ccccc1)c1ccc(OCC[N+](C)(C)C)cc1)c1ccccc1 [TAMOXIFEN METHYL IODIDE] | 11.5 µM (inactive) | 15.6 µM (inactive) | 17.5 µM (inactive) | 8.81 µM (inactive) | 11.3 µM (inactive) | 10.2 µM (inactive) |  | 17.1 µM (inactive) | 4.99 µM (inactive) | 13 µM (inactive) |  | 15.3 µM (inactive) | 21.6 µM (inactive) | 8.59 µM (inactive) | 9.16 µM (inactive) |  |  | 13.3 µM (inactive)
6 | Cc1ccc2c(c1)-c1c3c(nn1C)-c1ccccc1SC3O2 (configuration not stated) | 41 µM (inactive) | 44.5 µM (inactive) | 33.7 µM (inactive) | > 100 µM (inactive) | > 100 µM (inactive) |  | > 100 µM (inactive) | 65.8 µM (inactive) | 78.7 µM (inactive) |  | > 100 µM (inactive) | 55.6 µM (inactive) | > 100 µM (inactive) | 78.9 µM (inactive) |  |  | > 100 µM (inactive) | 38.6 µM (inactive)
7 | CC(C)(C)C1=CC(=C(P(=O)(O)O)P(=O)(O)O)C=C(C(C)(C)C)C1=O | > 50 µM (inactive) | > 50 µM (inactive) | > 50 µM (inactive) | > 50 µM (inactive) | > 50 µM (inactive) | > 50 µM (inactive) | > 50 µM (inactive) | > 50 µM (inactive) | > 50 µM (inactive) | > 50 µM (inactive) | > 50 µM (inactive) | > 50 µM (inactive) | > 50 µM (inactive) | > 50 µM (inactive) |  |  | > 50 µM (inactive) | > 50 µM (inactive)
8 | CCOC(=O)c1cc2c3c(c(O)c(OC)c2s1)N(C(=O)c1cc2c4c(c(O)c(OC)c2s1)N(C(C)=O)CC4)CC3 | > 100 µM (inactive) | > 100 µM (inactive) | > 100 µM (inactive) | > 100 µM (inactive) | > 100 µM (inactive) | 50.4 µM (inactive) | > 100 µM (inactive) | > 100 µM (inactive) | > 100 µM (inactive) | 71.6 µM (inactive) | > 100 µM (inactive) | > 100 µM (inactive) | 38.5 µM (inactive) | > 100 µM (inactive) | > 100 µM (inactive) |  | > 100 µM (inactive) | > 100 µM (inactive)
9 | COc1cc(OC)c2c(=O)c3cccc([N+](=O)[O-])c3n(C)c2c1 | 60 µM (inactive) | > 100 µM (inactive) |  | 61.4 µM (inactive) | 80.4 µM (inactive) |  | 77.8 µM (inactive) |  | 52.4 µM (inactive) | > 100 µM (inactive) |  | > 100 µM (inactive) | 74 µM (inactive) | > 100 µM (inactive) | 95.3 µM (inactive) |  | > 100 µM (inactive) | > 100 µM (inactive)
10 | C/C=C1\Oc2ccc(OC)cc2S1(=O)=O | > 100 µM (inactive) | > 100 µM (inactive) | > 100 µM (inactive) | > 100 µM (inactive) | > 100 µM (inactive) | > 100 µM (inactive) | > 100 µM (inactive) | > 100 µM (inactive) | > 100 µM (inactive) | > 100 µM (inactive) | > 100 µM (inactive) | > 100 µM (inactive) |  | > 100 µM (inactive) | > 100 µM (inactive) | > 100 µM (inactive) | > 100 µM (inactive) | > 100 µM (inactive)
11 | [O-][S+](Cc1ccccc1)c1nc2ccccc2nc1-c1cccs1 (configuration not stated) | 4 µM (inactive) | 27.5 µM (inactive) | 10.4 µM (inactive) | 14.6 µM (inactive) |  | 4.06 µM (inactive) | 13.8 µM (inactive) | 20 µM (inactive) | 1.21 µM (inactive) | 5.78 µM (inactive) | 17.6 µM (inactive) | 17.8 µM (inactive) | 16.4 µM (inactive) | 11.3 µM (inactive) | 14 µM (inactive) |  | 14.3 µM (inactive) | 16 µM (inactive)
12 | CC(C)CC1CC2C(=O)N(c3ccccc3)C(=O)C2c2[nH]c3ccccc3c21 (configuration not stated) | 16 µM (inactive) | > 52.2 µM (inactive) | 11.4 µM (inactive) | 17.7 µM (inactive) | 16.8 µM (inactive) | 24.5 µM (inactive) | > 45.1 µM (inactive) | 29.2 µM (inactive) | 20.9 µM (inactive) | 8.3 µM (inactive) | > 100 µM (inactive) | > 56.2 µM (inactive) | 23.2 µM (inactive) | 27 µM (inactive) | 13.9 µM (inactive) | 10.4 µM (inactive) |  | 52.7 µM (inactive)
13 | Nc1nc2c3nc(Nc4ccccc4)sc3nc(=S)n2c2sc(Nc3ccccc3)nc12 |  | > 100 µM (inactive) | > 100 µM (inactive) | > 100 µM (inactive) |  | > 100 µM (inactive) | > 100 µM (inactive) |  | 8.34 µM (inactive) | > 100 µM (inactive) |  | 12.1 µM (inactive) | > 100 µM (inactive) | > 100 µM (inactive) | 65.5 µM (inactive) | 5.19 µM (inactive) |  | 
14 | COc1ccc(C(C2=C(C)C(=O)c3ccccc3C2=O)c2ccc(C(C)C)cc(=O)c2O)cc1 (configuration not stated) | 3.73 µM (inactive) | 2.77 µM (inactive) | 3.81 µM (inactive) | 4.16 µM (inactive) | 3.55 µM (inactive) | 1.7 µM (inactive) | 3.51 µM (inactive) | 3.78 µM (inactive) | 13.8 µM (inactive) | 6.49 µM (inactive) | 2.06 µM (inactive) | 3.77 µM (inactive) | 2.69 µM (inactive) |  | 2.87 µM (inactive) | 3.29 µM (inactive) |  | 4.3 µM (inactive)
15 | COC1CCC(=C2C(=O)OC(C)(C)OC2=O)N1 (configuration not stated) | > 100 µM (inactive) | > 100 µM (inactive) | > 100 µM (inactive) | > 100 µM (inactive) | > 100 µM (inactive) | > 100 µM (inactive) | > 100 µM (inactive) | > 100 µM (inactive) | > 100 µM (inactive) | > 100 µM (inactive) | > 100 µM (inactive) | > 100 µM (inactive) | > 100 µM (inactive) | > 100 µM (inactive) | > 100 µM (inactive) |  | > 100 µM (inactive) | > 100 µM (inactive)
16 | CCN(CC)c1ccc(Cl)c2c1C(O)(C(C)C)C2(C)C (configuration not stated) | 18.5 µM (inactive) |  | 14.1 µM (inactive) | 14.7 µM (inactive) | 17.3 µM (inactive) | 16.5 µM (inactive) | 15 µM (inactive) | 13.4 µM (inactive) | 14.5 µM (inactive) | 19 µM (inactive) | 16.6 µM (inactive) | 28.2 µM (inactive) | 19.8 µM (inactive) | 22.4 µM (inactive) | 16.7 µM (inactive) |  | 16.6 µM (inactive) | 15.1 µM (inactive)
17 | CCOC(=O)C/N=c1\nc(SC)sc2c(C(=O)OCC)nc(Sc3ccccc3)n12 | 8.13 µM (inactive) | 45.1 µM (inactive) | 32.1 µM (inactive) | 83.2 µM (inactive) | 6.76 µM (inactive) | 26 µM (inactive) |  |  | 7.18 µM (inactive) | 41.2 µM (inactive) | > 100 µM (inactive) | > 100 µM (inactive) |  |  | 91.4 µM (inactive) | 4.74 µM (inactive) | 25.9 µM (inactive) | > 100 µM (inactive)
